{
  "source": "patent US9408888B2",
  "about": "“High affinity bivalent helically constrained peptide against cancer” (COUNCIL OF SCIENTIFIC AND INDUSTRIAL RESEARCH, priority 2011, dated 2016)",
  "key": {"S100B": {"target": "T1, S100B (Homo sapiens, UniProt P04271)", "T1 sequence (P04271 1-92)": "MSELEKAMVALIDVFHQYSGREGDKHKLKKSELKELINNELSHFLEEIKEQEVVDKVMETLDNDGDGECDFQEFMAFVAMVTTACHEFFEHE", "test": "Fluorescence anisotropy binding of N-terminal fluorescein labeled peptides to S100B", "source_text": "FIG. 2. (A) Table of some representative peptides synthesized which respectively include pM-53 (SEQ ID No. 6), pBN-53 (SEQ ID No. 7), pBDC-53 (SEQ ID No. 8), pBM-TRTK (SEQ ID No. 2), pBDC-TRTK (two SEQ ID No. 2's cross-linked together with BMH), and pBBD-TRTK (SEQ ID No. 11) and their dissociation constants. Binding isotherm of branch dimeric SEQ ID No. 3 (i.e., SEQ ID No. 11) with (B) S-100B and (C) S100P and (D) branch dimeric SEQ ID No. 5 (i.e., SEQ ID No. 12) with S100B. Fluorescein labeled, 5 nM branch dimeric SEQ ID No. 3 (i.e., SEQ ID No. 11) or branch dimeric SEQ ID No. 5 (i.e., SEQ ID No. 12) was titrated with increasing concentrations of S100B or S100P in 50 mM Tris-HCl buffer, pH 7.5, containing 50 mM NaCl and 10 mM CaCl2 at ambient temperatures which was 25±1 degree C. Anisotropy was determined at each point. The each point is averaging of at least three independent experiments. The line is best fit to a single site binding equation given in description of the invention.\nBinding affinity of aib substituted p53 (SEQ ID No. 7) (and all other peptides) was estimated by fluorescence anisotropy using N-terminal fluorescein labeled peptides. […] Since S100B is a dimer, one possible way to enhance the binding is to synthesize a bivalent molecule, which can simultaneously bind to two subunits. SEQ ID No. 7 was dimerized with a properly designed cross-linker through inserted cysteine residues (SEQ ID No. 8). The C-terminal side of the two peptides (bound to two different subunits) comes fairly close and is separated by shallow groove allowing a cross-linker to fit. The length of the cross-linker was chosen such that it spans the separation between the two cysteine residues in the predicted structure.\nBinding data of the several of these peptides are shown in FIG. 2 (A) and some of the corresponding binding isotherms are shown FIG. 2(B-D). […] Also synthesized was a mutant branched peptide (SEQ ID No. 12 which is a lysine branch dimeric form of SEQ ID No. 5) bearing two mutations in the interacting residues. […] This peptide will be used as a control in the cellular experiments to be described later."}, "SK-MEL5 cells": {"system": "SK-MEL5 cells", "test": "Phase contrast microscopy of SK-MEL5 cells (shape change, blebbing, apoptosis)", "type": "cell-based", "source_text": "FIG. 3. Phase contrast microscopy of SK-MEL5 cells (A) 2 hrs after treatment with 10 microM SEQ ID No. 10; (B) 18 hrs after treatment with 20 microM branch dimeric SEQ ID No. 5 (i.e., SEQ ID No. 12); (C) 2 hr after treatment with branch dimeric SEQ ID No. 3 (i.e., SEQ ID No. 11) (without the cell penetration tag) and (D) control.\nFIG. 6. (A) Phase contrast microscopy of SK-MEL5 cells (Upper panel) 10 microM SEQ ID No. 10 with DR6 tags at two branches (Lower panel), and 10 microM pBBDR-TRTK (i.e., SEQ ID No. 10), pre-treated with 10 microM pifithrin-micro, 1 hr after treatment (Upper panel). (B) Confocal microscopic images of merged p53 (green) and mitotracker (red), Top untreated and bottom, 1 h after treatment with SEQ ID No. 10.\nThe effect of all the synthesized peptides on several melanoma cell lines which are known to over-express S100B was investigated.\nGiven the rapidity of apoptosis initiation, the examination of the recently reported direct mitochondrial translocation pathway was also done by the method if Vaseva and Moll, 2009. It has been reported that a small molecule pifithrin-micro blocks this pathway without affecting the canonical transcription-dependent pathway of p53 initiated apoptosis and a close analog, pifithrin-α blocks the canonical pathway without affecting the direct mitochondrial pathway (Strom et al., 2006). […]"}, "SK-MEL-5 cells": {"system": "SK-MEL-5 cells", "type": "cell-based", "settings": "18 h", "procedure": "FIG. 4. (A) Assay of cell viability using incorporation of ^3H-thymidine after treatment with different concentrations of SEQ ID No. 10 for 18 hrs. (B) Flow cytometry of SK-MEL5 cells before and after treatment with 10 microM SEQ ID No. 10 with DR6 tags at two branches, using Annexin V and Propidium Iodide (lower panel) and forward/side scatter (upper panel).\nThe effect of SEQ ID No. 10 on viability was also measured by ^3H thymidine uptake (FIG. 4 (A)). […] The apoptosis of SK-Mel5 cells was quantitated using flow cytometry. 49% of cells were determined to be apoptotic and 11% necrotic at 2 hrs using annexin V stain. Corresponding figures for 6 hrs were 57% and 14%, respectively (FIG. 4(B)). From the results presented here and analysis of growth promoting pathways described later-S100B appears to be a generalized growth promoter, when over-expressed."}, "[1]": {"test": "Toxicity in mice, i.v. treatment", "type": "in vivo, mouse", "procedure": "The effect of SEQ ID No. 10 was tested in a syngenic mouse model of melanoma. […] Histopathology of some key target organs after 8 days of treatment was normal, indicating no significant toxicity. […] Immuno-histochemistry of growth marker PCNA indicates complete loss of this antigen in the residual tumor mass upon treatment, indicating complete loss of proliferating cells (FIG. 7(C)).\nExperiments were carried out under protocols approved by the Institutional Animal Ethics Committee and institutional guidelines for the proper use of animals in research were followed. National guidelines had been followed. C57BL/6J female mice (mean initial weight, 20 g) were kept in one mice in one cage at 19° C. to 23° C. with a 12 hour light/12 hour dark cycle. They had free access to water and food. To generate tumor, 1×10^6 B16F10 cells were mixed with Matrigel (BD bioscience) and inoculated S.C. in the right flank of 6 week-old mice. Tumors (typically 2 mm in diameter) were palpable 5 days after subcutaneous injection. Peptide treatments (50 mg/kg body weight) were administered by intravenous tail vein injection on the day tumors became apparent (day 0) and then days 1, 2, 3, 4, 5, 6 and 7. Control mice were treated only with saline vehicle. Mice were weighted, and tumor volumes were calculated with the following formula: π/6×larger diameter×(smaller diameter)^2."}, "[2]": {"settings": "upto 50 mg/Kg body weight, i.v."}},
  "note": "Where a SMILES comes first, the peptide text is derived from it. Bridges are numbered along the chain shown (N, C = ends). Roman numbers before positions name the chains, in order. Where no end group is shown, it is not given here. [ ]: non-standard residue; d: D form. Aib = CC(C)(N)C(=O)O; Ahx = NCCCCCC(=O)O",
  "data": [
    {"molecule": "QSTBRHBKLMFKTBG (QST[Aib]RH[Aib]KLMFKT[Aib]G-NH2) [SEQ ID No. 7, P53 Aib substituted monomer peptide]", "values": [
      {"measurement": "binding to S100B relative to parent peptide, in words", "setting": "S100B; fluorescence anisotropy", "value": "somewhat stronger than the unmodified peptide"},
      {"measurement": "dissociation constant for S100B, in words", "setting": "S100B; fluorescence anisotropy", "value": "micromolar range"}
    ]},
    {"molecule": "SEQ ID No. 2 with DR6 tags at two branches: pBM-TRTK dimerised with BMH crosslinker and tagged with hexa-arginine (TRTKIDW[Aib]KIL[Aib]GGGCG-NH2; also: dimer through Cys via BMH crosslinker, DR6 (hexa-arginine) tags on two branches, place not given here)", "values": [
      {"measurement": "potency in inducing apoptosis relative to SEQ ID No. 10", "setting": "SK-MEL5 cells; SK-MEL5", "value": "nearly as potent as SEQ ID No. 10"}
    ]},
    {"molecule": "SEQ ID No. 8: GCGG Modified pBM53 dimerised with BMH crosslinker; monomer QSTBRHBKLMFKTBGGGCG (QST[Aib]RH[Aib]KLMFKT[Aib]GGGCG-NH2; also: dimer via BMH crosslinker)", "values": [
      {"measurement": "increase in affinity for S100B upon dimerization", "setting": "S100B; cross-linked dimer versus monomer SEQ ID No. 7", "value": "approximately 15 fold"}
    ]},
    {"molecule": "SEQ ID No. 2: pBM-TRTK dimerised through cysteine residues with BMH cross-linker (TRTKIDW[Aib]KIL[Aib]GGGCG-NH2; also: dimer through Cys via BMH crosslinker)", "values": [
      {"measurement": "binding to S100B relative to parent peptide, in words", "setting": "S100B; fluorescence anisotropy", "value": "approximately an order of magnitude tighter binding"}
    ]},
    {"molecule": "NS(=O)(=O)C#Cc1ccccc1", "note": "[pifithrin-μ, reference compound]", "values": [
      {"measurement": "effect of pifithrin-μ on peptide-induced apoptosis", "setting": "SK-MEL5 cells; 10 microM pifithrin pre-treatment, 10 microM peptide, 1 hr", "value": "blebbings are not seen"}
    ]},
    {"molecule": "CC[C@H](C)[C@H](NC(=O)[C@H](CCCCN)NC(=O)C(C)(C)NC(=O)[C@H](C)NC(=O)[C@H](CC(=O)O)NC(=O)[C@H](C)NC(=O)[C@H](CCCCN)NC(=O)[C@@H](NC(=O)[C@H](CCCNC(=N)N)NC(=O)[C@@H](N)[C@@H](C)O)[C@@H](C)O)C(=O)N[C@@H](CC(C)C)C(=O)NC(C)(C)C(=O)N[C@@H](CCCCN)C(=O)NCCCCCC(=O)NCCCC[C@H](NC(=O)CCCCCNC(=O)[C@H](CCCCN)NC(=O)C(C)(C)NC(=O)[C@H](CC(C)C)NC(=O)[C@@H](NC(=O)[C@H](CCCCN)NC(=O)C(C)(C)NC(=O)[C@H](C)NC(=O)[C@H](CC(=O)O)NC(=O)[C@H](C)NC(=O)[C@H](CCCCN)NC(=O)[C@@H](NC(=O)[C@H](CCCNC(=N)N)NC(=O)[C@@H](N)[C@@H](C)O)[C@@H](C)O)[C@@H](C)CC)C(N)=O", "note": "[SEQ ID No. 12, TRTKADABKILBKAhxKAhxKBLIKBADAKTRT-(I5A,W7A)] (I: H-TRTKADA[Aib]KIL[Aib]K[Ahx]K-NH2 / II: H-TRTKADA[Aib]KIL[Aib]K[Ahx]; amide I:15-II:C; N-terminus assumed)", "values": [
      {"measurement": "Kd", "setting": "S100B; fluorescence anisotropy, 50 mM Tris-HCl pH 7.5, 50 mM NaCl, 10 mM CaCl2, 25 degree C, read-out: Kd (dissociation constant) for S100B", "value": "135 ± 18.5", "unit": "nM"}
    ]},
    {"molecule": "CC[C@H](C)[C@H](NC(=O)[C@H](CCCCN)NC(=O)[C@@H](NC(=O)[C@H](CCCNC(=N)N)NC(=O)[C@@H](NC(=O)[C@@H](CCCNC(=N)N)NC(=O)[C@@H](CCCNC(=N)N)NC(=O)[C@@H](CCCNC(=N)N)NC(=O)[C@@H](CCCNC(=N)N)NC(=O)[C@@H](CCCNC(=N)N)NC(=O)[C@H](N)CCCNC(=N)N)[C@@H](C)O)[C@@H](C)O)C(=O)N[C@@H](CC(=O)O)C(=O)N[C@@H](Cc1c[nH]c2ccccc12)C(=O)NC(C)(C)C(=O)N[C@@H](CCCCN)C(=O)N[C@H](C(=O)N[C@@H](CC(C)C)C(=O)NC(C)(C)C(=O)N[C@@H](CCCCN)C(=O)NCCCCCC(=O)NCCCC[C@H](NC(=O)CCCCCNC(=O)[C@H](CCCCN)NC(=O)C(C)(C)NC(=O)[C@H](CC(C)C)NC(=O)[C@@H](NC(=O)[C@H](CCCCN)NC(=O)C(C)(C)NC(=O)[C@H](Cc1c[nH]c2ccccc12)NC(=O)[C@H](CC(=O)O)NC(=O)[C@@H](NC(=O)[C@H](CCCCN)NC(=O)[C@@H](NC(=O)[C@H](CCCNC(=N)N)NC(=O)[C@@H](NC(=O)[C@@H](CCCNC(=N)N)NC(=O)[C@@H](CCCNC(=N)N)NC(=O)[C@@H](CCCNC(=N)N)NC(=O)[C@@H](CCCNC(=N)N)NC(=O)[C@@H](CCCNC(=N)N)NC(=O)[C@H](N)CCCNC(=N)N)[C@@H](C)O)[C@@H](C)O)[C@@H](C)CC)[C@@H](C)CC)C(N)=O)[C@@H](C)CC", "note": "[SEQ ID No. 10, ^DR6 TRTKIDWBKILBKAhxKAhxKBLIKBWDIKTRT-^DR6]", "values": [
      {"measurement": "IC50", "setting": "SK-MEL-5 cells", "value": "< 2000", "unit": "nM"},
      {"measurement": "histopathology of key target organs", "setting": "[1]; after 8 days of treatment, 50 mg/Kg", "value": "normal"},
      {"measurement": "lethality", "setting": "[1]; [2]", "value": "non-lethal"},
      {"measurement": "toxicity", "setting": "[1]; [2]", "value": "no demonstrable toxicity"}
    ]}
  ]
}
